The values that follow come from patent US5235045A, “Non-azo naphthalimide dyes” (priority 1992, dated 1993).

Test [1] relates to H9 cells. In words: Uptake into living H9 cells. It is filed as cell-based, human. The note with it: for rate constant for uptake: 10% fetal calf serum. The procedure: For measurement, the pellet was diluted in 3 ml PBS+0.1% CTAB immediately prior to fluorescence measurement. Fluorescence measurements were made using an excitation wavelength of 451 nm, and an emission wavelength of 526 nm.
The protocol used is as above in (1), modified as below for those experiments in the presence of colchicine: Colchicine (1 mg/ml) was added to H9 cells at 5×10^.ident. cells/ml, and incubated for 1 hour. The cells were centrifuged, fresh medium was added, and 1b (25 μM) was added. Samples were taken at 0, 2, and 4 hours.

The test system of test [2] is H9 cells. Put plainly: Location in living cells (fluorescence microscopy). It is filed as cell-based, human. The note with it: 5 and 25 μM; 1.5 hours. The procedure:
Following the protocol of (1), above, H9 cells were stained with Compound lb, and the technique of fluorescent microscopy was used to determine visually the sites of localization of dye fluorescence in living cells. Specifically, H9 cells were counted with a hemocytometer and diluted to 5×10^5 /ml. Compound 1b was added to two aliquots to give dye concentrations of 5 and 25 μM, and the tubes were incubated for 1.5 hours. Cytospin slides of the cell suspensions were made and they were examined with the fluorescence microscope (Olympus AH-2) using B excitation plus a 460 nm interference excitation filter and a 495 nm emission filter. The cells were also counted with a hemocytometer and their viability determined (see below). […] The former may reflect the diffusional component of the dye incorporation, or may reflect binding in the ER membrane. The latter may indicate lysosomal localization of pinocytosed dye as occurs with Lucifer Yellow.

In test [3] the test system is various individual protein preparations. In words: Protein cross-linking with DiEd6Br and light (gel electrophoresis, general). Format: biochemical. From the text: Concomitant with the appearance of the heavier species with photoillumination with the decrease in intensity of electromigrated bands of the initially present protein.

As for `CCCCCCNc1ccc2c3c(cccc13)C(=O)N(CCCCCC)C2=O` [Compound 1b, 4-(hexyl)amino-N-hexyl-1,8-naphthalimide], the “rate constant for uptake” value in the test on H9 cells [1] (1 μM, 4° C.) is given as 3.5 ± 0.6 × 10^-4 s^-1; with H9 cells [1] (1 μM, 37° C.), 3.6 ± 1.7 × 10^-4 s^-1; in the test with H9 cells [1] (5 μM, 4° C.) it was 2.7 ± 1.0 × 10^-4 s^-1; with H9 cells [1] (5 μM, 37° C.), 3.3 ± 0.7 × 10^-4 s^-1; with H9 cells [1] (25 μM, 4° C.) it was 2.3 ± 0.9 × 10^-4 s^-1; with H9 cells [1] (25 μM, 37° C.), 2.5 ± 0.3 × 10^-4 s^-1. The “total uptake in presence of colchicine” value with H9 cells [1] (25 μM, colchicine pre-incubated 1 hour) is on record as “decreased”. The “slope of log/log plot of fluorescence vs. time, presence and absence of colchicine” value in the test on H9 cells [1] (after 2 hours, 25 μM) is recorded as “essentially the same slope”. Further, the “localization in cell nucleus” value with H9 cells [2] was “rigorously excluded from the cell nucleus”. The “site of dye fluorescence” value in the test on H9 cells [2] is recorded as “highly fluorescent with the cytoplasm being the primary site”.

In the case of `CCCCCCN1C(=O)c2cccc3c(NCCNC(=O)CCCCC(=O)NCCNc4c(Br)cc5c6c(cccc46)C(=O)N(CCCCCC)C5=O)c(Br)cc(c23)C1=O` [Compound XLIV], the “heavier molecular species in absence of light” value in test [3] (no light) was “complete absence of these species”. The heavier molecular species entry in test [3] (photoirradiation nominally 420 nm) is listed as “formation of slower electromigrating, thus heavier, molecular species”.
